Converted amounts (≈) assume the structure as drawn.
test system: C. albicans ATCC90028; experiment: Antifungal activity test, MIC by broth microdilution (CLSI M27-A3); assay type: cell-based; settings: C. albicans ATCC90028; broth microdilution, 35° C., 24-48 hours, 100% inhibition
In short: (§1)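 CLSI broth microdilution in RPMI 1640 with 2% glucose, 0.165 mol/L MOPS, pH 7.0; two-fold DMSO dilutions. MIC = lowest concentration giving 100% inhibition versus growth control.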

Q: How did the MIC turn out when `C[C@@H]1[C@H](O)[C@@H](C)/C=C/C=C/C=C/C=C/C=C/C=C/C=C/[C@H](O[C@@H]2O[C@H](C)[C@@H](O)[C@H](N)[C@@H]2O)C[C@@H]2O[C@](O)(C[C@@H](O)C[C@@H](O)[C@H](O)CC[C@@H](O)C[C@@H](O)CC(=O)O[C@H]1C)C[C@H](O)[C@H]2NC(=O)NC[C@H](O)CC(=O)O` [I-250] was run?
A: 0.5 µg/mL (≈ 0.481 µM)

test system: A. flavus ATCC204304; experiment: Antifungal activity test, MIC by broth microdilution (CLSI M38-A2); assay type: cell-based; settings: A. flavus ATCC204304; broth microdilution, 35° C., 24-48 hours, 100% inhibition
In short: as §1

Q: `C[C@@H]1[C@H](O)[C@@H](C)/C=C/C=C/C=C/C=C/C=C/C=C/C=C/[C@H](O[C@@H]2O[C@H](C)[C@@H](O)[C@H](N)[C@@H]2O)C[C@@H]2O[C@](O)(C[C@@H](O)C[C@@H](O)[C@H](O)CC[C@@H](O)C[C@@H](O)CC(=O)O[C@H]1C)C[C@H](O)[C@H]2NC(=O)NC[C@H](O)CC(=O)O` [I-250] was tested. Which MIC did it give?
A: 0.5 µg/mL (≈ 0.481 µM)

test system: A. fumigatus ATCC204305; experiment: as above; assay type: cell-based; settings: A. fumigatus ATCC204305; broth microdilution, 35° C., 24-48 hours, 100% inhibition
In short: as §1

Q: How did the MIC turn out when `C[C@@H]1[C@H](O)[C@@H](C)/C=C/C=C/C=C/C=C/C=C/C=C/C=C/[C@H](O[C@@H]2O[C@H](C)[C@@H](O)[C@H](N)[C@@H]2O)C[C@@H]2O[C@](O)(C[C@@H](O)C[C@@H](O)[C@H](O)CC[C@@H](O)C[C@@H](O)CC(=O)O[C@H]1C)C[C@H](O)[C@H]2NC(=O)NC[C@H](O)CC(=O)O` [I-250] was run?
A: 1 µg/mL (≈ 0.961 µM)

test system: red blood cells (5% RBC suspension); experiment: Test Example 2-1: in vitro hemolytic activity test (upper limit 50, 80, 100 or 200 μmol/L); assay type: cell-based; settings: hemolysis method 50 (upper concentration 50 μmol/L); 5% RBC suspension, 37° C., one hour; read-out: hemolysis IC50
In short: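 A 5% suspension of washed red cells in Earle's medium was exposed to doubling dilutions of compound from DMSO, with maxima of 50, 80, 100 or 200 μmol/L final, for 1 h at 37 °C, 5% CO2. Supernatant absorbance at 540 nm was normalised to water-lysed cells. IC50 is the concentration giving 50% hemolysis; ">" values exceed the top concentration.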

Q: Which IC50 does the source give for `C[C@@H]1[C@H](O)[C@@H](C)/C=C/C=C/C=C/C=C/C=C/C=C/C=C/[C@H](O[C@@H]2O[C@H](C)[C@@H](O)[C@H](N)[C@@H]2O)C[C@@H]2O[C@](O)(C[C@@H](O)C[C@@H](O)[C@H](O)CC[C@@H](O)C[C@@H](O)CC(=O)O[C@H]1C)C[C@H](O)[C@H]2NC(=O)NC[C@H](O)CC(=O)O` [I-250] here?
A: > 50 µM

test system: red blood cells (5% RBC suspension); experiment: Test Example 2-2: in vitro hemolytic activity test (upper limit 200 μmol/L); assay type: cell-based; settings: Erythrocyte, 1 h; Test Example 2-2; hemolysis method 200 (upper concentration 200 μmol/L); 5% RBC suspension, 37° C., one hour; read-out: hemolysis IC50
Method: Nephrotoxic potentials of the compounds of the present invention whose X is —N(R^F)—CO—X^1 and X^1 is the group represented by formula (III) and T is —N(R^a5)— were investigated by in vitro hemolytic activity test under the condition that the upper limit was 200 μmol/L as the required concentration to 50% of hemolysis (IC50).
Defibrinated sterile blood was centrifuged at 700×g for 3 minutes and, and the supernatant was removed for 100% of red blood cells. After the cleaning with physiological saline, the washed blood cells was suspended in the medium (Earle's balanced salt sodium, bicarbonate, 0.1 g/L L-glutamine without phenol red), and was diluted by 5% (5% RBC suspension).
The washed blood was diluted by 5% in water for injection (solution of complete hemolysis), and was used as the indication of optical density for complete hemolysis.
The compounds of the present invention solution in DMSO (several and doubling dilutions starting from 10 mmol/L), DMSO as the negative control, and Amphotericin B as the positive control were used, and each 5 μL of these was added in to a well of V-form 96 well type microplate. Finally, the maximum concentration of the compounds of the present invention solution in DMSO was 200 μmol/L by adding 245 μL of the medium or 5% RBC suspension into the well.
Two hundred fifty μL of the solution of complete hemolysis was added into another well and the microplate was incubated at 37° C. in 5% of CO2 concentration for an hour.
After the incubation, each 100 μL of supernatants in wells was collected by centrifugation of the microplate at 300×g for 5 minutes and was located on a well of flat-form 96 well type microplate. An absorbance of each supernatant was measured at wavelength of 540 nm.
Percent hemolysis was calculated by using the followed equation. The required concentration to 50% of hemolysis (IC50) was calculated based on the percent hemolysis. […] Hemolysis (%)=(CR−VM)×100÷(VL−VR) Where:
CR: Absorbance of 5% RBC suspension incubated with the compounds of the present invention solution in DMSO
VM: Absorbance of medium incubated with the compounds of the present invention solution in DMSO
VL: Absorbance of solution of complete hemolysis
VR: Absorbance of 5% RBC suspension incubated with DMSO
The “>200” in the table means above IC50 value exceeded the upper concentration 200 μmol/L.

Q: How did the IC50 turn out when `C[C@@H]1[C@H](O)[C@@H](C)/C=C/C=C/C=C/C=C/C=C/C=C/C=C/[C@H](O[C@@H]2O[C@H](C)[C@@H](O)[C@H](N)[C@@H]2O)C[C@@H]2O[C@](O)(C[C@@H](O)C[C@@H](O)[C@H](O)CC[C@@H](O)C[C@@H](O)CC(=O)O[C@H]1C)C[C@H](O)[C@H]2NC(=O)NNCCN(C)C` [I-78] was run?
A: > 200 µM

Q: For `COC(=O)NNC(=O)N[C@H]1[C@@H]2C[C@@H](O[C@@H]3O[C@H](C)[C@@H](O)[C@H](N)[C@@H]3O)/C=C/C=C/C=C/C=C/C=C/C=C/C=C/[C@H](C)[C@@H](O)[C@@H](C)[C@H](C)OC(=O)C[C@H](O)C[C@H](O)CC[C@@H](O)[C@H](O)C[C@H](O)C[C@](O)(C[C@@H]1O)O2` [I-47], which IC50 is on record?
A: > 200 µM

same assay, conditions: Test Example 2-2; hemolysis method 200 (upper concentration 200 μmol/L); 5% RBC suspension, 37° C., one hour; read-out: hemolysis IC50

Q: `C[C@@H]1[C@H](O)[C@@H](C)/C=C/C=C/C=C/C=C/C=C/C=C/C=C/[C@H](O[C@@H]2O[C@H](C)[C@@H](O)[C@H](N)[C@@H]2O)C[C@@H]2O[C@](O)(C[C@@H](O)C[C@@H](O)[C@H](O)CC[C@@H](O)C[C@@H](O)CC(=O)O[C@H]1C)C[C@H](O)[C@H]2NC(=O)NNS(=O)(=O)c1c[nH]cn1` [I-214] was tested. Which IC50 did it give?
A: > 200 µM

Q: With `C[C@@H]1[C@H](O)[C@@H](C)/C=C/C=C/C=C/C=C/C=C/C=C/C=C/[C@H](O[C@@H]2O[C@H](C)[C@@H](O)[C@H](N)[C@@H]2O)C[C@@H]2O[C@](O)(C[C@@H](O)C[C@@H](O)[C@H](O)CC[C@@H](O)C[C@@H](O)CC(=O)O[C@H]1C)C[C@H](O)[C@H]2NC(=O)NNC(=O)NC[C@H](O)CO` [I-225] as the compound, how does the IC50 read?
A: > 200 µM

Q: With `CCCC(=O)NNC(=O)N[C@H]1[C@@H]2C[C@@H](O[C@@H]3O[C@H](C)[C@@H](O)[C@H](N)[C@@H]3O)/C=C/C=C/C=C/C=C/C=C/C=C/C=C/[C@H](C)[C@@H](O)[C@@H](C)[C@H](C)OC(=O)C[C@H](O)C[C@H](O)CC[C@@H](O)[C@H](O)C[C@H](O)C[C@](O)(C[C@@H]1O)O2` [I-209] as the compound, how does the IC50 read?
A: > 200 µM

Q: Which IC50 does the source give for `C[C@@H]1[C@H](O)[C@@H](C)/C=C/C=C/C=C/C=C/C=C/C=C/C=C/[C@H](O[C@@H]2O[C@H](C)[C@@H](O)[C@H](N)[C@@H]2O)C[C@@H]2O[C@](O)(C[C@@H](O)C[C@@H](O)[C@H](O)CC[C@@H](O)C[C@@H](O)CC(=O)O[C@H]1C)C[C@H](O)[C@H]2NC(=O)NNC(=O)CO` [I-243] here?
A: > 200 µM

Q: `C[C@@H]1[C@H](O)[C@@H](C)/C=C/C=C/C=C/C=C/C=C/C=C/C=C/[C@H](O[C@@H]2O[C@H](C)[C@@H](O)[C@H](N)[C@@H]2O)C[C@@H]2O[C@](O)(C[C@@H](O)C[C@@H](O)[C@H](O)CC[C@@H](O)C[C@@H](O)CC(=O)O[C@H]1C)C[C@H](O)[C@H]2NC(=O)NNC(=O)C1CCC(O)CC1` (stereo partly shown) [I-239] was tested. Which IC50 did it give?
A: > 200 µM

Q: For `C[C@@H]1[C@H](O)[C@@H](C)/C=C/C=C/C=C/C=C/C=C/C=C/C=C/[C@H](O[C@@H]2O[C@H](C)[C@@H](O)[C@H](N)[C@@H]2O)C[C@@H]2O[C@](O)(C[C@@H](O)C[C@@H](O)[C@H](O)CC[C@@H](O)C[C@@H](O)CC(=O)O[C@H]1C)C[C@H](O)[C@H]2NC(=O)NNC(=O)[C@H](O)[C@@H](O)[C@H](O)[C@H](O)CO` [I-242], which IC50 is on record?
A: > 200 µM

Q: `C[C@@H]1[C@H](O)[C@@H](C)/C=C/C=C/C=C/C=C/C=C/C=C/C=C/[C@H](O[C@@H]2O[C@H](C)[C@@H](O)[C@H](N)[C@@H]2O)C[C@@H]2O[C@](O)(C[C@@H](O)C[C@@H](O)[C@H](O)CC[C@@H](O)C[C@@H](O)CC(=O)O[C@H]1C)C[C@H](O)[C@H]2NC(=O)NNC(=O)[C@H](O)C(C)(C)CO` [I-245] was tested. Which IC50 did it give?
A: > 200 µM
